Like-named read-outs stand apart in the source and are kept apart here.
Columns and labels:
[1] = tested on: KYSE 180; test: In vitro human tumor cell line cytotoxicity assay; type: cell-based; details: read-out: RelIC50
[2] = tested on: EC-GI-10; test: In vitro human tumor cell line cytotoxicity assay; type: cell-based; details: read-out: RelIC50
[3] = tested on: TF-1; test: In vitro human tumor cell line cytotoxicity assay; type: cell-based; details: read-out: RelIC50
[4] = tested on: HepG2; test: In vitro human tumor cell line cytotoxicity assay; type: cell-based; details: for IC50: Homo sapiens
[5] = tested on: KYSE; test: In vitro human tumor cell line cytotoxicity assay; type: cell-based; details: read-out: RelIC50
[6] = Body weight and toxicity in the orthotopic liver cancer mouse model; type: in vivo, athymic nude mice; details: intra-peritoneal, low or high dose (2.5 and 5 mg/kg)
[7] = tested on: KG-1; test: In vitro human tumor cell line cytotoxicity assay; type: cell-based; details: read-out: RelIC50
[8] = tested on: KYSE 270; test: In vitro human tumor cell line cytotoxicity assay; type: cell-based; details: read-out: RelIC50
[9] = tested on: TE-6; test: In vitro human tumor cell line cytotoxicity assay; type: cell-based; details: read-out: RelIC50
[10] = tested on: MOLT-4; test: In vitro human tumor cell line cytotoxicity assay; type: cell-based; details: read-out: RelIC50
[11] = tested on: COLO680N; test: In vitro human tumor cell line cytotoxicity assay; type: cell-based; details: COLO-680N, read-out: RelIC50
[12] = tested on: LIXC012; test: In vitro human tumor cell line cytotoxicity assay; type: cell-based; details: for IC50: Homo sapiens
[13] = tested on: TALL-1; test: In vitro human tumor cell line cytotoxicity assay; type: cell-based; details: read-out: RelIC50
[14] = tested on: HCCC9810; test: In vitro human tumor cell line cytotoxicity assay; type: cell-based; details: for IC50: Homo sapiens
[15] = tested on: ECa-109; test: In vitro human tumor cell line cytotoxicity assay; type: cell-based; details: read-out: RelIC50

**Q.** With `C[C@H](OP(=O)(N1CC1)N1CC1)c1ccc([N+](=O)[O-])c(Oc2cccc(C(=O)N(C)C)c2)c1` (single isomer, unassigned) [TH3424] as the compound, how does the IC50 [1] read?
**A.** The IC50 was 450 nM.

**Q.** What about the IC50 [2] of the same compound?
**A.** The IC50 was 13 nM.

**Q.** And the IC50 [3]?
**A.** The IC50 was 28 nM.

**Q.** And the “Max Inhibition%” value [4]?
**A.** The value was 100.2%.

**Q.** And the “Min Inhibition%” value [4]?
**A.** The value was 3.4%.

**Q.** And the IC50 ([4]; read-out: AbsIC50)?
**A.** Its IC50 is 8.6 nM.

**Q.** What about the IC50 ([4]; read-out: RelIC50) of the same compound?
**A.** The IC50 was 7.3 nM.

**Q.** What about the IC50 [5] of the same compound?
**A.** The IC50 was 11 nM.

**Q.** What about the “toxicity to the experimental mice” value [6] of the same compound?
**A.** The value was “no obvious toxicity”.

**Q.** And the “toxicity to the experimental mice” value ([6]; listed as TH2870-2)?
**A.** The value was “no obvious acute toxicity”.

**Q.** What about the IC50 [7] of the same compound?
**A.** Its IC50 is 15.3 nM.

**Q.** And the IC50 [8]?
**A.** Its IC50 is 270 nM.

**Q.** What about the IC50 [9] of the same compound?
**A.** Its IC50 is 21 nM.

**Q.** And the IC50 [10]?
**A.** Its IC50 is 10 nM.

**Q.** And the IC50 [11]?
**A.** Its IC50 is 66 nM.

**Q.** What about the “Max Inhibition%” value [12] of the same compound?
**A.** The value was 82.8%.

**Q.** And the “Min Inhibition%” value [12]?
**A.** The value was 4.1%.

**Q.** And the IC50 ([12]; read-out: AbsIC50)?
**A.** The IC50 was 17.5 nM.

**Q.** And the IC50 ([12]; read-out: RelIC50)?
**A.** The IC50 was 11.2 nM.

**Q.** And the IC50 [13]?
**A.** The IC50 was 30 nM.

**Q.** What about the “Max Inhibition%” value [14] of the same compound?
**A.** Its value is 95.4%.

**Q.** And the “Min Inhibition%” value [14]?
**A.** The value was 2.1%.

**Q.** And the IC50 ([14]; read-out: AbsIC50)?
**A.** Its IC50 is 13.9 nM.

**Q.** And the IC50 ([14]; read-out: RelIC50)?
**A.** The IC50 was 13.4 nM.

**Q.** What about the IC50 [15] of the same compound?
**A.** Its IC50 is 17 nM.

Source: patent EP3390415B1, “(R)- AND (S)-1-(3-(3-N,N-DIMETHYLAMINOCARBONYL)PHENOXYL-4-NITROPHENYL)-1-ETHYL-N,N'-BIS (ETHYLENE)PHOSPHORAMIDATE, COMPOSITIONS AND METHODS FOR THEIR USE AND PREPARATION” (OBI PHARMA, INC., priority 2015, dated 2017)
